From patent EP4616867A1, “COMBINATION OF ENDOTHELIN RECEPTOR ANTAGONIST AND GLUCOCORTICOID FOR TREATING IGA NEPHROPATHY” (Sanreno Therapeutics (Shanghai) Limited, priority 2022, dated 2024)

Tested on: IgA nephropathy model mice
Test: Efficacy of atrasentan, methylprednisolone and combinations in IgA nephropathy model mice (CFA-stimulated humanized IGHA1 mice); blood hIgA1, IgG, IgM
Assay type: in vivo
Conditions: IgAN mice; for IgG, Difference between pre-treatment and post-treatment value (post-treatment minus pre-treatment), Mean (SD) / IgG, Difference between pre-treatment and post-treatment value (post-treatment minus pre-treatment), Median (Q1 - Q3) / IgM, Difference between pre-treatment and post-treatment value (post-treatment minus pre-treatment), Mean (SD) / IgM, Difference between pre-treatment and post-treatment value (post-treatment minus pre-treatment), Median (Q1 - Q3) / hIgA1, Difference between pre-treatment and post-treatment value (post-treatment minus pre-treatment), Mean (SD) / hIgA1, Difference between pre-treatment and post-treatment value (post-treatment minus pre-treatment), Median (Q1 - Q3): 30 days gavage; for IgG, After treatment, Mean (SD) / IgG, After treatment, Median (Q1 - Q3) / IgM, After treatment, Mean (SD) / IgM, After treatment, Median (Q1 -Q3) / hIgA1, After treatment, Mean (SD) / hIgA1, After treatment, Median (Q1 - Q3): after 30 days gavage, atrasentan 15 mg/kg/day, methylprednisolone 5 mg/kg/day, dapagliflozin 1 mg/kg/day; for IgG, Before treatment, Mean (SD) / IgG, Before treatment, Median (Q1 - Q3) / IgM, Before treatment, Mean (SD) / IgM, Before treatment, Median (Q1 - Q3) / hIgA1, Before treatment, Mean (SD) / hIgA1, Before treatment, Median (Q1 - Q3): baseline before dosing
From the text: The present invention will be further described below through examples, but the examples are not meant to limit the scope of the present invention in any way. For the measurement methods of various parameters in the examples, reference should be made to Wan F, Wang H, Wang M, Lü J, Zhao M, Zhang H. Sustained release of Lactobacillus casei cell wall extract can induce a continuous and stable IgA deposition model. […] Chimeric Fusion between Clostridium Ramosum IgA Protease and IgG Fc Provides Long-Lasting Clearance of IgA Deposits in Mouse Models of IgA Nephropathy. […] The above-mentioned documents are incorporated into this application in their entirety. […] Complete Freunds adjuvant (CFA) and phosphate buffer solution (PBS) were mixed thoroughly and emulsified at a ratio of 1:1 to obtain a CFA injection that was intraperitoneally injected into 8-week-old humanized IGHA1 mice constructed in step 1. Four times the mouse body weight (4w μl) was injected every 2 weeks, administering a total of 6 injections over a time period of about 2.5 months. • 2. In this experiment, the 8-week-old humanized IgA1 mice underwent an induction period of 2 to 5 months after the final injection of CFA. Table 1 […] Each group received intraperitoneal injections of CFA injection to create a model. Upon model completion, atrasentan, methylprednisolone and/or dapagliflozin were administered as outlined below. The control group was administered an equal amount of solvent (an aqueous solution of 0.5% (w/v) methylcellulose and 0.5% (v/v) Tween 80) by gavage for 30 days. Dosing method: atrasentan (15 mg/kg/day), methylprednisolone (5 mg/kg/day), dapagliflozin (1 mg/kg/day) were administered by gavage every morning for 30 days. When co-administered, the required medicines were mixed together in the appropriate proportion (the dose of each medicine was calculated according to mouse body weight) before administration by gavage. […] Prior to dosing, once every 2 weeks during the dosing period, and on day 30 of dosing, urine creatinine, urine protein level, and albumin to creatinine ratio (ACR) were measured, and the mice checked for the presence of haematuria. Prior to dosing and on day 30 of dosing, renal tissue pathology was scored according to the Oxford classification system, IgA and C3 deposition in renal tissue was measured by immunofluorescence assay, and mice in each group were examined for cardiac pathology.

Row | Compound | IgG, Difference between pre-treatment and post-treatment value (post-treatment minus pre-treatment), Mean (SD) | IgG, Difference between pre-treatment and post-treatment value (post-treatment minus pre-treatment), Median (Q1 - Q3) | IgM, Difference between pre-treatment and post-treatment value (post-treatment minus pre-treatment), Mean (SD) | IgM, Difference between pre-treatment and post-treatment value (post-treatment minus pre-treatment), Median (Q1 - Q3) | hIgA1, Difference between pre-treatment and post-treatment value (post-treatment minus pre-treatment), Mean (SD) | hIgA1, Difference between pre-treatment and post-treatment value (post-treatment minus pre-treatment), Median (Q1 - Q3) | IgG, After treatment, Mean (SD) | IgG, After treatment, Median (Q1 - Q3) | IgM, After treatment, Mean (SD) | IgM, After treatment, Median (Q1 -Q3) | hIgA1, After treatment, Mean (SD) | hIgA1, After treatment, Median (Q1 - Q3) | IgG, Before treatment, Mean (SD) | IgG, Before treatment, Median (Q1 - Q3) | IgM, Before treatment, Mean (SD) | IgM, Before treatment, Median (Q1 - Q3) | hIgA1, Before treatment, Mean (SD) | hIgA1, Before treatment, Median (Q1 - Q3)
1 | C[C@H]1C[C@@H]2[C@H]([C@@H](O)C[C@@]3(C)[C@H]2CC[C@]3(O)C(=O)CO)[C@@]2(C)C=CC(=O)C=C12 [Methylprednisolone (MP), methylprednisolone] | -0.10(0.20) | -0.09(-0.28 - 0.39) | -0.04(0.08) | -0.05(-0.12 - 0.13) | -0.03( 0.70) | -0.11 (-1.97 - 2.12) | 4.75(0.81) | 3.56(3.22 - 7.06) | 1.51(0.33) | 1.08(0.80 - 2.34) | 6.63(0 .79) | 6.23( 4.78 - 8.97) | 4.85(0.94) | 3.75(3.04 - 7.83) | 1.55(0.28) | 1.31(0.90 - 2.22) | 6.66( 0.37) | 6.69(6. 12 - 7.53)
2 | CCCCN(CCCC)C(=O)CN1C[C@H](c2ccc3c(c2)OCO3)[C@@H](C(=O)O)[C@@H]1c1ccc(OC)cc1 [Atrasentan (A), atrasentan] | 1.69(0.35) | 1.58(1.11 - 2.23) | 0.54(0.23) | 0.38(0.07 - 0.69) | 5.95 (1.50) | 4.96 (3.03 - 8.99) | 5.04(0.10) | 5.06(4.74 - 5.25) | 2.08(0.45) | 1.72(1.28 - 2.26) | 15.99( 3.40) | 12.99 (7.93 - 23.80) | 3.35(0.36) | 3.32(2.90 - 4.14) | 1.55(0.25) | 1.31(1.02 - 1.97) | 10.04 (2.46) | 7.88(4. 24 - 16.39)
